Results from publication PMC4010497, “Synthesis and Evaluation of Fluorine-Substituted Phenyl Acetate Derivatives as Ultra-Short Recovery Sedative/Hypnotic Agents” (PLoS ONE, 2014).

Key:
mice [1] = assay: animal or person; type: in vivo; settings: mice; for ED50: Mus musculus, IV over 10 s, 95% confidence limits, read-out: HD50 (the source's name); for Duration of LORR: IV 2× HD50, mean ± SD (n = 10); for Onset time: IV, mean ± SD (n = 10)
Description: All tests were performed during the light period. Groups of mice, rats and rabbits were injected intravenously (lateral tail vein) over 10 s with each dose of test compound, placed in separate boxes to reduce external stimuli and assessed for the loss of righting reflex. Dosing was performed using mg/kg scheme. A set of dose levels was chosen, and depending on whether the loss of righting reflex was observed, extra doses were introduced to provide data for the loss of righting reflex over a narrow dose range to allow potency calculations. From the percentage of mice, rats and rabbits in each group showing loss of righting reflex for ≥30 s, a probit analysis (SAS Institute) was performed to obtain an HD50 for each compound with 95% confidence limits.
Immediately following the injection, the mice, rats and rabbits were tested for loss of righting reflex. […] Once a loss was observed, the interval between the loss of righting reflex and the return to righting reflex was recorded. The anesthetized animals recovered righting reflexes spontaneously. To compare the duration of LORR of each compound at equipotent doses, groups of mice, rats and rabbits were injected with each compound at 2× HD50 over 10 s.
Time to walk was the time required after righting before mice and rabbits walked from the center to the periphery of a 30-cm diameter dise.
The rotarod test was conducted to evaluate the recovery to the motor coordination. Before the LORR test, mice were trained for 2 consecutive days. Trained mice could maintain their balance on rod for more than 2 mins. After the mice could walk from the center to the periphery of a 30-cm diameter dise, they were put on the rotarod. Mice were classified as behavioral recovery when, on being placed on the rod, they could maintain their balance for 20 s. The time to behavioral recovery was the time required after mice walked from the centre to the periphery of a 30-cm diameter disc before they could maintain their balance on rod for 20 s.

GABAA receptor = assay: GABAA radioligand binding assay ([3H]EBOB); settings: 50 µM compound, 0.5 nM [3H]EBOB, rat frontoparietal cortex
Description: All the new compounds were dissolved in 5% DMSO.
Specific binding was determined in the presence of compounds.
Membrane suspensions were thawed and centrifuged in incubation buffer at 10,000×g for 10 min and washed by a similar centrifugation. For displacement studies, membrane suspensions (5 mg original wet wt./ml) were incubated with 0.5 nM [^3H]EBOB ([…], Perkin Elmer Life Sciences, Boston, MA, USA) in the absence or presence of 50 µM of new compounds or reference drug for 2 h at 25°C. Nonspecific binding was determined in the presence of 10 µM Bicuculline. Bicuculline and picrotoxin were frequently used to determine the nonspecific binding when [3H]EBOB as radioligand [17]. Triplicate 1 ml samples were filtered on Whatman GF/B filters under vacuum with a Brandel Harvester and washed with 3×3 ml ice-cold buffer.

[2] = Octanol:water partition coefficient; type: physicochemical; settings: water buffered with 10 mm Tris (pH 7.4)
Description: One mg of each hypnotic was added to 10 ml of water buffered with 10 mm Tris (pH 7.4) and 1 ml of octanol. The mixture was stirred overnight and then centrifuged to fully separate the organic and aqueous phases. The relative hypnotic concentration in each phase (i.e., the partition coefficient) was determined by high-performance liquid chromatography as described for blood.

in vivo = settings: mouse, in vivo, mice, 95% confidence limits
Description: (§1) The LD50 was determined in mice, rats, and rabbits and the TI was calculated as LD50/HD50.

mice [3] = assay: in vivo; settings: LD50/HD50
Description: as §1

CCOC(=O)Cc1ccc(OCC(=O)N(CC)CC)c(OC(F)(F)F)c1 [Compound 5a, Ethyl 2-(4-(2-(diethylamino)-2-oxoethoxy)-3-(trifluoromethoxy)phenyl)acetate]
ED50 (mice [1]): 72.5 mg/kg | Duration of LORR (mice [1]): 155.2 ± 10.3 s | Onset time (mice [1]): 35.1 ± 6.8 s | GABAA binding (50 µmol) (Mean ± SD), percentage of inhibition (GABAA receptor): 69.1±4.2% | Octanol:Water Partition (Coefficient ± SD) [2]: 2157±185 | LD50 (in vivo): 442 mg/kg | TI (mice [3]): 6.1

CCCOC(=O)Cc1ccc(OCC(=O)N(CC)CC)c(OC(F)(F)F)c1 [Compound 5b, propyl 2-(4-(2-(diethylamino)-2-oxoethoxy)-3-(trifluoromethoxy)phenyl)acetate]
ED50 (mice [1]): 58.7 mg/kg | Duration of LORR (mice [1]): 162.6 ± 15.7 s | Onset time (mice [1]): 32.4 ± 5.6 s | GABAA binding (50 µmol) (Mean ± SD), percentage of inhibition (GABAA receptor): 73.9±5.3% | Octanol:Water Partition (Coefficient ± SD) [2]: 4745±280 | LD50 (in vivo; intravenous): 346 mg/kg | TI (mice [3]): 5.9

CCN(CC)C(=O)COc1ccc(CC(=O)OCC(F)(F)F)cc1OC(F)(F)F [Compound 5c, 2,2,2-trifluoroethyl 2-(4-(2-(diethylamino)-2-oxoethoxy)-3-(trifluoromethoxy)phenyl)acetate]
anesthetic potency (in words) (mice [1]): poor anesthetic potency | GABAA binding (50 µmol) (Mean ± SD), percentage of inhibition (GABAA receptor): 30.4±3.5% | Octanol:Water Partition (Coefficient ± SD) [2]: 3427±130

CCOC(=O)Cc1ccc(OCC(=O)N(CC)CC)c(OCC(F)(F)F)c1 [Compound 5d, ethyl 2-(4-(2-(diethylamino)-2-oxoethoxy)-3-(2,2,2-trifluoroethoxy)phenyl)acetate]
ED50 (mice [1]): 47.4 mg/kg | Duration of LORR (mice [1]): 181.9 ± 14.3 s | Onset time (mice [1]): 25.2 ± 3.8 s | GABAA binding (50 µmol) (Mean ± SD), percentage of inhibition (GABAA receptor): 67.7±3.2% | Octanol:Water Partition (Coefficient ± SD) [2]: 778±77 | LD50 (in vivo): 260 mg/kg | TI (mice [3]): 5.5

CCCOC(=O)Cc1ccc(OCC(=O)N(CC)CC)c(OCC(F)(F)F)c1 [Compound 5e, propyl 2-(4-(2-(diethylamino)-2-oxoethoxy)-3-(2,2,2-trifluoroethoxy)phenyl)acetate]
ED50 (mice [1]): 43.8 mg/kg | Duration of LORR (mice [1]): 224.6 ± 19.5 s | Onset time (mice [1]): 23.4 ± 4.6 s | GABAA binding (50 µmol) (Mean ± SD), percentage of inhibition (GABAA receptor): 72.2±6.5% | Octanol:Water Partition (Coefficient ± SD) [2]: 872±65 | LD50 (in vivo): 250 mg/kg | TI (mice [3]): 5.7

CCN(CC)C(=O)COc1ccc(CC(=O)OCC(F)(F)F)cc1OCC(F)(F)F [Compound 5f, 2,2,2-trifluoroethyl 2-(4-(2-(diethylamino)-2-oxoethoxy)-3-(2,2,2-trifluoroethoxy)phenyl)acetate]
anesthetic potency (in words) (mice [1]): poor anesthetic potency | GABAA binding (50 µmol) (Mean ± SD), percentage of inhibition (GABAA receptor): 45.4±4.3% | Octanol:Water Partition (Coefficient ± SD) [2]: 1452±156

CCN(CC)C(=O)COc1ccc(CC(=O)OCC(F)(F)F)cc1OC [Compound 5g, 2,2,2-trifluoroethyl 2-(4-(2-(diethylamino)-2-oxoethoxy)-3-methoxyphenyl)acetate]
ED50 (mice [1]): 59.6 mg/kg | Time to walk (mice [1]; 2× HD50): 22.5 ± 6.9 s | time to behavioral recovery (mice [1]; 2× HD50, rotarod): 46.5 ± 8.5 s | Duration of LORR (mice [1]): 44.8 ± 2.1 s | Onset time (mice [1]): 6.2 ± 0.4 s | GABAA binding (50 µmol) (Mean ± SD), percentage of inhibition (GABAA receptor): 87.2±5.7% | Octanol:Water Partition (Coefficient ± SD) [2]: 597±68 | LD50 (in vivo): 363 mg/kg | TI (mice [3]): 6.1

CCN(CC)C(=O)COc1ccc(CC(=O)OCCC(F)(F)F)cc1OC [Compound 5h, 3,3,3-trifluoropropyl 2-(4-(2-(diethylamino)-2-oxoethoxy)-3-methoxyphenyl)acetate]
ED50 (mice [1]): 25.6 mg/kg | Duration of LORR (mice [1]): 69.3 ± 7.8 s | Onset time (mice [1]): 7.5 ± 1.2 s | GABAA binding (50 µmol) (Mean ± SD), percentage of inhibition (GABAA receptor): 80.3±7.6% | Octanol:Water Partition (Coefficient ± SD) [2]: 792±36

CCN(CC)C(=O)COc1ccc(CC(=O)OC(C)C(F)(F)F)cc1OC (stereo not shown) [Compound 5i, 1,1,1-trifluoropropan-2-yl 2-(4-(2-(diethylamino)-2-oxoethoxy)-3-methoxyphenyl)acetate]
ED50 (mice [1]): 21.1 mg/kg | Duration of LORR (mice [1]): 80.1 ± 9.3 s | Onset time (mice [1]): 7.2 ± 0.5 s | GABAA binding (50 µmol) (Mean ± SD), percentage of inhibition (GABAA receptor): 81.6±10.5% | Octanol:Water Partition (Coefficient ± SD) [2]: 1857±124 | LD50 (in vivo): 112 mg/kg | TI (mice [3]): 5.5

CCOc1cc(CC(=O)OCCC(F)(F)F)ccc1OCC(=O)N(CC)CC [Compound 5k, 3,3,3-trifluoropropyl 2-(4-(2-(diethylamino)-2-oxoethoxy)-3-ethoxyphenyl)acetate]
ED50 (mice [1]): 29.2 mg/kg | Duration of LORR (mice [1]): 65.6 ± 6.8 s | Onset time (mice [1]): 7.6 ± 0.9 s | GABAA binding (50 µmol) (Mean ± SD), percentage of inhibition (GABAA receptor): 74.0±6.3% | Octanol:Water Partition (Coefficient ± SD) [2]: 667±102

CCOc1cc(CC(=O)OC(C)C(F)(F)F)ccc1OCC(=O)N(CC)CC (stereo not shown) [Compound 5l, 1,1,1-trifluoropropan-2-yl 2-(4-(2-(diethylamino)-2-oxoethoxy)-3-ethoxyphenyl)acetate]
ED50 (mice [1]): 20.7 mg/kg | Duration of LORR (mice [1]): 121.2 ± 11.5 s | Onset time (mice [1]): 7.3 ± 1.1 s | GABAA binding (50 µmol) (Mean ± SD), percentage of inhibition (GABAA receptor): 79.5±10.0% | Octanol:Water Partition (Coefficient ± SD) [2]: 2857±400 | LD50 (in vivo): 103 mg/kg | TI (mice [3]): 5.1
